According to patent US10858335B2 (Rigel Pharmaceuticals, Inc., priority 2014, dated 2020):
Counter-ions that a name gives are not always drawn.

These compounds were tested on GDF8 signaling (p-SMAD-3 (Ser423/425)) (assay: AlphaScreen SureFire SMAD3 (p-Ser423/425) assay, GDF8-stimulated cells (GDF pSMAD)). Details: Mus musculus, MPC-11, GDF8-stimulated pSMAD3, MPC11; tested as the salt form given; read-out: GDF pSMAD (MPC11) (μM), inhibition of GDF8 signaling.
Format: cell-based

IC50 [µM] | SMILES
0.285 | Cc1cnc(-c2ccc(F)c(Cl)c2)c(-c2ccc3ncnc(N)c3c2)c1 [compound 990, 6-(2-(3-chloro-4-fluorophenyl)-5-methylpyridin-3-yl)quinazolin-4-amine]
1.63 | CN1CCN(CCCNc2ncnc3ccc(-c4cccnc4-c4cc(Cl)ccc4F)cc23)CC1 [compound 1046]
3.21 | COc1cnc(-c2cccc(O)c2)c(-c2ccc3ncnc(N)c3c2)c1 [compound 994, 3-(3-(4-aminoquinazolin-6-yl)-5-methoxypyridin-2-yl)phenol]
8 | Cc1cc(F)c(F)cc1-c1ncccc1-c1ccc2ncnc(N)c2c1 [compound 987, 6-(2-(4,5-difluoro-2-methylphenyl)pyridin-3-yl)quinazolin-4-amine]

Same assay, conditions: Mus musculus, MPC-11, MPC11; GDF8-stimulated; p-SMAD3 AlphaScreen; read-out: GDF pSMAD (MPC11) (inhibition of GDF8 signaling)

IC50 [µM] | SMILES
0.284 | Fc1ccc(Cl)cc1-c1ncccc1-c1ccc2ncnn2c1 [compound 747, 6-(2-(5-Chloro-2-fluorophenyl)pyridin-3-yl)-[1,2,4]triazolo[1,5-a]pyridine]
8.11 | Cc1cc(-c2ncccc2-c2ccc3onc(N)c3c2)ccc1F [compound 795, 5-(2-(4-Fluoro-3-methylphenyl)pyridin-3-yl)benzo[d]isoxazol-3-amine]
0.245 | Cc1cc(-c2ncccc2-c2ccn3ncc(C(=O)NC4CCN(C)CC4)c3c2)ccc1F [compound 655, 5-(2-(4-Fluoro-3-methylphenyl)pyridin-3-yl)-N-(1-methylpiperidin-4-yl)pyrazolo[1,5-a]pyridine-3-carboxamide]
1.06 | Cc1cc(-c2ncccc2-c2ccn3ncc(C#N)c3n2)ccc1F [compound 901, 5-(2-(4-Fluoro-3-methylphenyl)pyridin-3-yl)pyrazolo[1,5-a]pyrimidine-3-carbonitrile]
0.125 | Cn1cnc2ccc(-c3cccnc3-c3cc(Cl)c(F)cc3F)cc21 [compound 784, 6-(2-(5-Chloro-2,4-difluorophenyl)pyridin-3-yl)-1-methyl-1H-benzo[d]imidazole]
8.14 | COc1ccnc2ccc(-c3cccnc3-c3cc(Cl)ccc3F)cc12 [compound 840, 6-(2-(5-Chloro-2-fluorophenyl)pyridin-3-yl)-4-methoxyquinoline]
0.882 | Cc1cc(-c2ncccc2-c2ccc3ncc(C(=O)NC4CC(C)(C)N(C)C(C)(C)C4)n3c2)ccc1F [compound 702, 6-(2-(4-Fluoro-3-methylphenyl)pyridin-3-yl)-N-(1,2,2,6,6-pentamethylpiperidin-4-yl)imidazo[1,2-a]pyridine-3-carboxamide]
0.096 | Cc1cnc2ccc(-c3cccnc3-c3cccc(Cl)c3)cn12 [compound 765, 6-(2-(3-Chlorophenyl)pyridin-3-yl)-3-methylimidazo[1,2-a]pyridine]
5.83 | Cc1cc(-c2ncccc2-c2ccc3ncc(C(=O)NCC45CCCN4CCC5)n3c2)ccc1F [compound 802, 6-(2-(4-Fluoro-3-methylphenyl)pyridin-3-yl)-N-((tetrahydro-1H-pyrrolizin-7a(5H)-yl)methyl)imidazo[1,2-a]pyridine-3-carboxamide]
0.266 | CN1CCC(NC(=O)c2cnc3ccc(-c4cccnc4-c4cccc(Cl)c4)cn23)CC1 [compound 708, 6-(2-(3-Chlorophenyl)pyridin-3-yl)-N-(1-methylpiperidin-4-yl)imidazo[1,2-a]pyridine-3-carboxamide]
0.0972 | Cc1cc(-c2ncccc2-c2ccn3nccc3n2)ccc1F [compound 910, 5-(2-(4-Fluoro-3-methylphenyl)pyridin-3-yl)pyrazolo[1,5-a]pyrimidine]
0.632 | Cc1cc(-c2ncccc2-c2ccc3ncc(=O)[nH]c3c2)ccc1F [compound 891, 7-(2-(4-Fluoro-3-methylphenyl)pyridin-3-yl)quinoxalin-2(1H)-one]
0.426 | O=c1cnc2ccc(-c3cccnc3-c3cc(Cl)ccc3F)cc2[nH]1 [compound 892, 7-(2-(5-Chloro-2-fluorophenyl)pyridin-3-yl)quinoxalin-2(1H)-one]
10.8 | Cc1cc(-c2ncccc2-c2ccc3ncc(C(=O)N[C@@H]4CCCC[C@H]4N)n3c2)ccc1F [compound 679, N-((1R,2R)-2-Aminocyclohexyl)-6-(2-(4-fluoro-3-methylphenyl)pyridin-3-yl)imidazo[1,2-a]pyridine-3-carboxamide]
0.775 | Clc1ccc(Cl)c(-c2ncccc2-c2ccc3nccn3c2)c1 [compound 872, 6-(2-(2,5-Dichlorophenyl)pyridin-3-yl)imidazo[1,2-a]pyridine]

Second part, the compound before the results:

SMILES | IC50 [µM]
Cc1cccc(-c2nc(N)ccc2-c2ccc3ncsc3c2)c1 [Compound 29, 5-(Benzo[d]thiazol-6-yl)-6-m-tolylpyridin-2-amine] | 1.45
Cc1cc(-c2ncccc2-c2ccc3c(cnn3C(=O)OC[C@@H](N)Cc3c[nH]c4ccccc34)c2)ccc1F [compound 179, (S)-2-Amino-3-(1H-indol-3-yl)propyl 5-(2-(4-fluoro-3-methylphenyl)pyridin-3-yl)-1H-indazole-1-carboxylate Trifluoroacetic Acid Salt] | 0.337
c1cc(-c2ncccc2-c2ccn3cncc3c2)cc(C2CC2)c1 [compound 596, 7-(2-(3-Cyclopropylphenyl)pyridin-3-yl)imidazo[1,5-a]pyridine] | 0.204
Cc1cccc(-c2ncccc2-c2ccc3ncnn3c2)c1 [Compound 192, 6-(2-m-Tolylpyridin-3-yl)-[1,2,4]triazolo[1,5-a]pyridine] | 0.347
Cn1cnc2ccc(-c3cccnc3-c3ccc(F)c(Cl)c3)cc2c1=O [compound 390, 6-(2-(3-Chloro-4-fluorophenyl)pyridin-3-yl)-3-methylquinazolin-4(3H)-one] | 0.516
Cc1cc(-c2ncc(NCCCN3CCN(C)CC3)cc2-c2ccc3ncsc3c2)ccc1F [compound 320, 5-(Benzo[d]thiazol-6-yl)-6-(4-fluoro-3-methylphenyl)-N-(3-(4-methylpiperazin-1-yl)propyl)pyridin-3-amine] | 2.99
Cc1cnc2ccc(-c3cccnc3-c3cccc(C4CC4)c3)cn12 [compound 529, 6-(2-(3-Cyclopropylphenyl)pyridin-3-yl)-3-methylimidazo[1,2-a]pyridine] | 0.323
Cc1cc(-c2ncccc2-c2ccc3ncc(C(=O)NCCN4CCOCC4)n3c2)ccc1F [compound 585, 6-(2-(4-Fluoro-3-methylphenyl)pyridin-3-yl)-N-(2-morpholinoethyl)imidazo[1,2-a]pyridine-3-carboxamide] | 0.51
Cc1ccccc1-c1ncccc1-c1ccc2ncnc(N)c2c1 [compound 462, 6-(2-(o-Tolyl)pyridin-3-yl)quinazolin-4-amine] | 18.4
CCn1ncc2cc(-c3cccnc3-c3ccc(F)c(C)c3)ccc21 [Compound 184, 1-Ethyl-5-(2-(4-fluoro-3-methylphenyl)pyridin-3-yl)-1H-indazole] | 12.9
FC(F)(F)c1cccc(-c2ncccc2-c2ccn3cncc3c2)c1 [compound 597, 7-(2-(3-(Trifluoromethyl)phenyl)pyridin-3-yl)imidazo[1,5-a]pyridine] | 0.837
COc1ccc(Nc2ncnc3ccc(-c4cccnc4-c4ccc(F)c(C)c4)cc23)cc1 [compound 407, 6-(2-(4-Fluoro-3-methylphenyl)pyridin-3-yl)-N-(4-methoxyphenyl)quinazolin-4-amine] | 2.47
Cc1cc(-c2ncccc2-c2ccn3c(C(=O)NCCCN4CCCC4=O)ncc3c2)ccc1F [compound 274, 7-(2-(4-Fluoro-3-methylphenyl)pyridin-3-yl)-N-(3-(2-oxopyrrolidin-1-yl)propyl)imidazo[1,5-a]pyridine-3-carboxamide] | 14.8
c1cc(-c2ncccc2-c2ccc3ncncc3c2)cc(C2CC2)c1 [compound 365, 6-(2-(3-Cyclopropylphenyl)pyridin-3-yl)quinazoline] | 0.165
COc1cc(NC(=O)c2cnc3ccc(-c4cccnc4-c4cccc(C)c4)cn23)cc(OC)c1OC [compound 574, 6-(2-(m-Tolyl)pyridin-3-yl)-N-(3,4,5-trimethoxyphenyl)imidazo[1,2-a]pyridine-3-carboxamide] | 0.853
Cc1cc(-c2nc(N)ccc2-c2ccc3[nH]ncc3c2)ccc1F [Compound 21, 6-(4-Fluoro-3-methylphenyl)-5-(1H-indazol-5-yl)pyridin-2-amine] | 1.92
Nc1cnc(-c2cccc(C3CC3)c2)c(-c2ccc3ncsc3c2)c1 [Compound 19, 5-(Benzo[d]thiazol-6-yl)-6-(3-cyclopropylphenyl)pyridin-3-amine] | 0.083
Cc1cc(-c2ncc(CN(C)C)cc2-c2ccc3nccnc3c2)ccc1F [compound 226, 1-(6-(4-Fluoro-3-methylphenyl)-5-(quinoxalin-6-yl)pyridin-3-yl)-N,N-dimethylmethanamine] | 10
Cc1ccc(Oc2ncnc3ccc(-c4cccnc4-c4ccc(F)c(C)c4)cc23)cn1 [compound 432, 6-(2-(4-Fluoro-3-methylphenyl)pyridin-3-yl)-4-((6-methylpyridin-3-yl)oxy)quinazoline] | 0.513
Cc1cccc(-c2ncccc2-c2ccc3ncoc3c2)c1 [Compound 181, 6-(2-m-Tolylpyridin-3-yl)benzo[d]oxazole] | 0.539
Nc1ncnc2ccc(-c3cccnc3-c3cc(Cl)ccc3Cl)cc12 [compound 501, 6-(2-(2,5-Dichlorophenyl)pyridin-3-yl)quinazolin-4-amine] | 0.355
N#Cc1cnc2ccc(-c3cccnc3-c3ccc(F)cc3)cn12 [compound 625, 6-(2-(4-Fluorophenyl)pyridin-3-yl)imidazo[1,2-a]pyridine-3-carbonitrile] | 7.79
COc1cc(CNc2cnc(-c3ccc(F)c(C)c3)c(-c3ccc4ncsc4c3)c2)ccc1OCCO [compound 356, 2-(4-(((5-(Benzo[d]thiazol-6-yl)-6-(4-fluoro-3-methylphenyl)pyridin-3-yl)amino)methyl)-2-methoxyphenoxy)ethan-1-ol] | 0.965
Cc1cc(-c2ncccc2-c2ccc3ncc(CO)n3c2)ccc1F [compound 565, (6-(2-(4-Fluoro-3-methylphenyl)pyridin-3-yl)imidazo[1,2-a]pyridin-3-yl)methanol] | 0.406
